Values after ≈ are worked out from the molar mass of the structure shown.
Legend:
Format in all cases: in vivo
Cott. = assay: Phytotoxicity, cotton; set-up: key: 1 = No plant injury at a dose of 2500 ppm; conditions: rating; dose of 2500 ppm
Soybean = assay: Phytotoxicity, soybean; set-up: key: 1 = No plant injury at a dose of 2500 ppm; conditions: rating; dose of 2500 ppm
[1] = system: bean aphid (Aphis fabae Scop.); assay: Bean Aphid Foliage Spray Test; conditions: foliar, foliage spray on nasturtium plants, adults and nymphs, mortality after 24 hour holding period, read-out: LD50 Aphid
Method: (§1) Suspensions of the test compounds were prepared by dissolving one gram of compound in 50 milliliters of acetone in which had been dissolved 0.1 gram (10 percent of the weight of compound) of an alkylphenoxy polyethoxyethanol surfactant, as an emulsifying or dispersing agent. The resulting solution was mixed into 150 milliliters of water to give roughly 200 milliliters of a suspension containing the compound in finely divided form. The thus-prepared stock suspension contained 0.5 percent by weight of compound. The concentrations in parts per million by weight employed in the tests described hereinbelow were obtained by appropriate dilutions of the stock suspension with water. The test procedures were as follows:
Adults and nymphal stages of the bean aphid (Aphis fabae Scop.) reared on potted dwarf nasturtium plants at 65°-70° F. and 50-70 percent relative humidity, constituted the test insects. For testing purposes, the number of aphids per pot was standardized to 100-150 by trimming plants containing excess aphids. […]
The potted plants (one pot per compound tested) infested with 100-150 aphids, were placed on a revolving turntable and sprayed with 100-110 milliliters of test compound formulation by use of a DeVilbiss spray gun set at 40 psig. air pressure. […] Percent mortality was recorded for various concentration levels. […]

[2] = system: Mexican bean beetle (Epilachna variestis, Muls.); assay: Mexican Bean Beetle Leaf Spray Test; conditions: 72 h, read-out: LD50 MBB
Method: as §1
Fourth instar larvae of the Mexican bean beetle (Epilachna variestis, Muls.), reared on Tendergreen bean plants at a temperature of 80°±5° F. and 50±5 percent relative humidity, were the test insects.
(§2) The test compounds were formulated by diluting the stock suspension with water to give a suspension containing 500 parts of test compound per million parts of final formulation. Tendergreen bean plants of standard height and age were placed on a revolving turntable and sprayed with 100-110 milliliters of test compound formulation by use of a DeVilbiss spray gun set at 10 psig air pressure. This application, which lasted 25 seconds, was sufficient to wet plants to run-off. […]

[3] = system: house flies (Musca domestica, L.); assay: Fly Bait Test; conditions: po, 24 h, adult flies, bait in 10 percent sugar solution, twenty four hours, read-out: LD50 HF
Method: as §1
Four to six day old adult house flies (Musca domestica, L.), reared according to the specifications of the Chemical Specialities Manufacturing Association (Blue Book, McNair-Dorland Co., N.Y. 1954; pages 243-244, 261) under controlled conditions of 80± F. and 50±5 percent relative humidity, were the test insects. The flies were immobilized by anesthetizing with carbon dioxide and twenty five immobilized individuals,males and females, were transferred to a cage consisting of a standard food strainer about five inches in diameter which was inverted over a wrapping-paper-covered surface. […]

[4] = system: southern armyworm (Spodoptera eridania, (Cram.)); assay: Southern Armyworm Leaf Spray Bait Test; conditions: 72 h, larvae on sprayed bean leaves, held three days, read-out: LD50 SAW
Method: as §1
Larvae of the southern armyworm (Spodoptera eridania, (Cram.)), reared on Tendergreen bean plants at a temperature of 80°±5° F. and a relative humidity of 50± percent, constituted the test insects.
as §2, with “formulation. Potted” for “formulation.”, “milliliter” for “milliliters”, “[…] Percent mortality” for “This application, which lasted 25 seconds,”, “recorded for various concentration levels.” for “sufficient to wet plants to run-off.”

[5] = system: two-spotted mite (Tetranychus urticae Koch); assay: Mite Foliage Spray Test; conditions: foliar, 144 h, foliage spray on bean plants, adults and nymphs, mortality count of motile forms after six days, read-out: LD50 Mite
Method: as §1
Adults and nymphal stage of the two-spotted mite (Tetranychus urticae Koch), reared on Tendergreen bean plants at 80±5 percent relative humidity, were the test organisms. Infested leaves from a stock culture were placed on the primary leaves of two bean plants six to eight inches in height, growing in a two-and-a-half inch clay pot. 150-200 Mites, a sufficient number for testing, transferred from the excised leaves to the fresh plants in a period of twenty four hours. Following the twenty four hour transfer period, the excised leaves were removed from the infested plants. […]

Corn = assay: Phytotoxicity, corn; set-up: key: 1 = No plant injury at a dose of 2500 ppm; conditions: rating; dose of 2500 ppm

| SMILES | Phytotoxicity Cott. (Cott.) | Phytotoxicity Soybean (Soybean) | LC50 [1] | LC50 [2] | LC50 [3] | LC50 [4] | LC50 [5] | Phytotoxicity Corn (Corn) |
| --- | --- | --- | --- | --- | --- | --- | --- | --- |
| CC(C)C(C(=O)OC(C#N)c1cccc(Oc2ccccc2)c1)c1cc2ccccc2o1 (stereo not shown) | 1 | 1 | ~0.7 µg/mL (≈ 1.65 µM) | 11 µg/mL (≈ 25.9 µM) | 23 µg/mL (≈ 54.1 µM) | ~45 µg/mL (≈ 106 µM) | 210 µg/mL (≈ 494 µM) | 1 |
| C#CC(OC(=O)C(c1cc2ccccc2o1)C(C)C)c1cccc(Oc2ccccc2)c1 (stereo not shown) | 1 | 1 | 0.8 µg/mL (≈ 1.88 µM) | 5 µg/mL (≈ 11.8 µM) | ~180 µg/mL (≈ 424 µM) | 52 µg/mL (≈ 122 µM) | 200 µg/mL (≈ 471 µM) | 1 |

From patent US4431650A, “Esters of benzofuranyl acids” (Union Carbide Corporation, priority 1980, dated 1984)
